Values after ≈ are worked out from the molar mass of the structure shown. Read-outs that look alike come from different tables or passages of the source.
How the values were obtained:
C. albicans NCPF3281 = assay: Candida panel MIC, serial dilution in 96-well plates; assay type: cell-based, Candida albicans; conditions: NCPF3281, read-out: MIC C. albicans NCPF3281
Description: (§1) The minimum inhibitory concentration of test compounds were determined in a panel of Candida species (see Table 4 below), using the a serial dilution method in 96-well plates using the following protocol.
(§2) Starter cultures of fungal strains to be tested were grown in 3 mL of RPMI 2% glucose media incubated at 37° C. with shaking at 200 rpm overnight. The culture media used was 900 mL H2O; 10.4 g RPMI 1640 (with L-glutamine and a pH indicator but without bicarbonate); 34.5 g MOPS and 18 g glucose. The pH of the media was adjusted to 7.0 with 1 M sodium hydroxide.
(§3) Solutions of the compound to be tested were prepared by dissolving the compound in DMSO and subsequently into media to the desired concentrations. 200 μL of compound solution was then added to the wells of the 96-well plate using a serial dilution method row-by row of the plate to give a compound concentration gradient across the plate of from 128 μg/mL to 0.25 μg/mL. The last two rows of each plate were control rows containing the culture media alone and the media plus fungi.
(§4) The fungi starter cultures were diluted 1:10 in water in cuvettes. This was then further diluted to an optical density (OD600) of 0.01 in media. 100 μL of the fungi was added to each well giving a starting concentration of fungus of 0.5-5×10^5/mL. One species of fungus was used on each plate. The plates were then held at 37° C. for 24 hours.
(§5) A plate reader was used to measure growth in each well at OD530 nm and the MIC was determined for each test compound. The MIC is defined as the lowest concentration giving rise to inhibition of ≥50% of that of the drug-free control well containing the fungus and media.

C. glabrata NCPF8018 = assay: as above; assay type: cell-based, Candida glabrata; conditions: Nakaseomyces glabratus
Description: as §1, §2
(§6) Solutions of the compound to be tested were prepared by dissolving the compound in DMSO and subsequently into media to the desired concentrations. […] The last two rows of each plate were control rows containing the culture media alone and the media plus fungi.
as §4, §5

C. krusei NCPF3876 = assay: microbe, parasite or virus in culture; assay type: cell-based, Candida krusei; conditions: Pichia kudriavzevii
Description: as §1, §2, §6, §4, §5

C. parapsilosis NCPF3209 = assay: microbe, parasite or virus in culture; assay type: cell-based, Candida parapsilosis; conditions: Lodderomyces parapsilosis
Description: as §1, §2, §6, §4, §5

Candida auris TDG2211 = assay: microbe, parasite or virus in culture; assay type: cell-based; conditions: Candidozyma auris, TDG2211; Table 4, extended panel; 24 hours, ≥50% inhibition; read-out: MIC Candida auris TDG2211
Description: as §1, §2, §6, §4, §5
(§7) The Candida auris strains shown in Table 7 were either taken from the National Collection of Pathogenic Fungi (NCPF) or collected as part of ongoing surveillance studies. The strains were characterised as follows.

Candida auris TDG2506 = assay: microbe, parasite or virus in culture; assay type: cell-based; conditions: Candidozyma auris, TDG2506; Table 4, extended panel; 24 hours, ≥50% inhibition; read-out: MIC Candida auris TDG2506
Description: as §1, §2, §6, §4, §5, §7

C. auris TDG1912 = assay: Candida panel MIC, serial dilution in 96-well plates; assay type: cell-based; conditions: Candidozyma auris, TDG1912; Table 4; 24 hours, ≥50% inhibition; read-out: MIC C. auris TDG1912
Description: as §1, §2, §3, §4, §5

C. tropicalis NCPF8760 = assay: as above; assay type: cell-based
Description: as §1, §2, §3, §4, §5

Candida auris TDG1102 = assay: as above; assay type: cell-based; conditions: Candidozyma auris, TDG1102; Table 4, extended panel; 24 hours, ≥50% inhibition; read-out: MIC Candida auris TDG1102
Description: as §1, §2, §3, §4, §5

Candida auris TDG2512 = assay: as above; assay type: cell-based; conditions: Candidozyma auris, TDG2512; Table 4, extended panel; 24 hours, ≥50% inhibition; read-out: MIC Candida auris TDG2512
Description: as §1, §2, §3, §4, §5

C. auris 8971 = assay: as above; assay type: cell-based, Candida auris; conditions: Candidozyma auris, 8971; Table 4, extended panel; 24 hours, ≥50% inhibition; read-out: MIC C. auris 8971
Description: as §1, §2, §6, §4, §5, §7

C. auris 8977 = assay: as above; assay type: cell-based, Candida auris; conditions: Candidozyma auris, 8977; Table 4, extended panel; 24 hours, ≥50% inhibition; read-out: MIC C. auris 8977
Description: as §1, §2, §6, §4, §5, §7

C. auris 8984 = assay: as above; assay type: cell-based, Candida auris; conditions: Candidozyma auris, 8984; Table 4, extended panel; 24 hours, ≥50% inhibition; read-out: MIC C. auris 8984
Description: as §1, §2, §6, §4, §5, §7

C. albicans 3363 = assay: Candida albicans panel MIC; assay type: cell-based; conditions: Table 6, Candida albicans panel
Description: as §1, §2, §3, §4, §5
(§8) The compounds shown in Table 6 were tested against a further panel of Candida albicans.

C. albicans 3645 = assay: Candida albicans panel MIC; assay type: cell-based; conditions: Table 6, Candida albicans panel
Description: as §1, §2, §3, §4, §5, §8

C. albicans 3880 = assay: Candida albicans panel MIC; assay type: cell-based; conditions: Table 6, Candida albicans panel
Description: as §1, §2, §3, §4, §5, §8

C. albicans 3881 = assay: Candida albicans panel MIC; assay type: cell-based; conditions: Table 6, Candida albicans panel
Description: as §1, §2, §3, §4, §5, §8

C. albicans 3882 = assay: Candida albicans panel MIC; assay type: cell-based; conditions: Table 6, Candida albicans panel
Description: as §1, §2, §3, §4, §5, §8

C. albicans 3990 = assay: Candida albicans panel MIC; assay type: cell-based; conditions: Table 6, Candida albicans panel
Description: as §1, §2, §3, §4, §5, §8

C. albicans 8112 = assay: Candida albicans panel MIC; assay type: cell-based; conditions: Table 6, Candida albicans panel
Description: as §1, §2, §3, §4, §5, §8

[1] = Candida albicans, Table 4, common panel, 24 hours, ≥50% inhibition
[2] = Table 6, Candida albicans panel
[3] = NCPF8018, Table 4, common panel, 24 hours, ≥50% inhibition, read-out: MIC C. glabrata NCPF8018
[4] = NCPF3876, Table 4, common panel, 24 hours, ≥50% inhibition, read-out: MIC C. krusei NCPF3876
[5] = NCPF3209, Table 4, common panel, 24 hours, ≥50% inhibition, read-out: MIC C. parapsilosis NCPF3209
[6] = NCPF8760, Table 4, common panel, 24 hours, ≥50% inhibition, read-out: MIC C. tropicalis NCPF8760
[7] = NCPF8018, read-out: MIC C. Glabrata NCPF8018
[8] = NCPF3876, read-out: MIC C. Krusei NCPF3876
[9] = NCPF3209, read-out: MIC C. Parapsilosis NCPF3209
[10] = NCPF8760, read-out: MIC C. Tropicalis NCPF8760

Structure (SMILES) | MIC (C. albicans NCPF3281; [1]) [µg/mL] | MIC (C. albicans NCPF3281; [2]) [µg/mL] | MIC (C. glabrata NCPF8018; [3]) [µg/mL] | MIC (C. krusei NCPF3876; [4]) [µg/mL] | MIC (C. parapsilosis NCPF3209; [5]) [µg/mL] | MIC (Candida auris TDG2211) [µg/mL] | MIC (Candida auris TDG2506) [µg/mL] | MIC (C. auris TDG1912) [µg/mL] | MIC (C. tropicalis NCPF8760; [6]) [µg/mL] | MIC (Candida auris TDG1102) [µg/mL] | MIC (Candida auris TDG2512) [µg/mL] | MIC (C. auris 8971) [µg/mL] | MIC (C. auris 8977) [µg/mL] | MIC (C. auris 8984) [µg/mL] | MIC (C. albicans 3363) [µg/mL] | MIC (C. albicans 3645) [µg/mL] | MIC (C. albicans 3880) [µg/mL] | MIC (C. albicans 3881) [µg/mL] | MIC (C. albicans 3882) [µg/mL] | MIC (C. albicans 3990) [µg/mL] | also measured
OC(CN1CCC(Nc2ccc(Cc3ccccc3)cc2)CC1)(Cn1cncn1)c1ccc(F)cc1F (centres unmarked) [Example 11, 1-(4-((4-benzylphenyl)amino)piperidin-1-yl)-2-(2,4-difluorophenyl)-3-(1H-1,2,4-triazol-1-yl)propan-2-ol] | ≤ 0.125 | ≤ 0.00098 | ≤ 0.125 | ≤ 0.125 | ≤ 0.125 | ≤ 0.125 | ≤ 0.125 | 0.125 (≈ 0.248 µM) | ≤ 0.125 | ≤ 0.125 | ≤ 0.125 | ≤ 0.125 | ≤ 0.125 | ≤ 0.125 | 0.0156 (≈ 0.031 µM) | 0.00391 (≈ 0.00776 µM) | 0.0313 (≈ 0.0622 µM) | 0.0313 (≈ 0.0622 µM) | 0.0625 (≈ 0.124 µM) | 0.0039 to 0.0625 (≈ 0.00774 to 0.124 µM) | MIC (C. albicans 8112): 0.00195 µg/mL (≈ 0.00387 µM)
OC(CN1CCC(N2CCC(Nc3ccc(Cc4ccccc4)cc3)CC2)CC1)(Cn1cncn1)c1ccc(F)cc1F (centres unmarked) [Example 12, 1-(4-((4-benzylphenyl)amino)-[1,4′-bipiperidin]-1′-yl)-2-(2,4-difluorophenyl)-3-(1H-1,2,4-triazol-1-yl)propan-2-ol] | ≤ 0.125 | 0.002 to 0.004 (≈ 0.00341 to 0.00682 µM) | 0.125 (≈ 0.213 µM) | ≤ 0.125 | ≤ 0.125 | ≤ 0.125 | ≤ 0.125 | 0.125 (≈ 0.213 µM) | ≤ 0.125 | ≤ 0.125 | ≤ 0.125 | ≤ 0.125 | ≤ 0.125 | ≤ 0.125 | 0.0625 (≈ 0.107 µM) | 0.00391 (≈ 0.00666 µM) | 0.0313 (≈ 0.0533 µM) | 0.0625 (≈ 0.107 µM) | 0.0625 (≈ 0.107 µM) | 0.0313 (≈ 0.0533 µM) | MIC (C. glabrata NCPF8018; [7]): 0.25 µg/mL (≈ 0.426 µM); MIC (C. krusei NCPF3876; [8]): ≤ 0.125 µg/mL; MIC (C. parapsilosis NCPF3209; [9]): ≤ 0.125 µg/mL; MIC (C. tropicalis NCPF8760; [10]): ≤ 0.125 µg/mL; MIC (C. albicans 8112): 0.00391 µg/mL (≈ 0.00666 µM)
OC(CN1CCC2(CCC(Nc3ccc(Cc4ccccc4)cc3)CC2)C1)(Cn1cncn1)c1ccc(F)cc1F (centres unmarked) [Example 13, 1-(8-((4-benzylphenyl)amino)-2-azaspiro[4.5]decan-2-yl)-2-(2,4-difluorophenyl)-3-(1H-1,2,4-triazol-1-yl)propan-2-ol] | ≤ 0.125 | ≤ 0.00098 | 0.25 (≈ 0.448 µM) | ≤ 0.125 | ≤ 0.125 | ≤ 0.125 | ≤ 0.125 | 0.25 (≈ 0.448 µM) | ≤ 0.125 | ≤ 0.125 | ≤ 0.125 | ≤ 0.125 | ≤ 0.125 | ≤ 0.125 | 0.125 (≈ 0.224 µM) | 0.00781 (≈ 0.014 µM) | 0.25 (≈ 0.448 µM) | 0.25 (≈ 0.448 µM) | 0.0313 to 2 (≈ 0.0561 to 3.59 µM) | 0.0625 (≈ 0.112 µM) | MIC (C. albicans 8112): 0.00049 to 0.00391 µg/mL (≈ 0.000879 to 0.00701 µM)
OC(CN1CCC(Nc2ccc(OCc3ccccc3)cc2)CC1)(Cn1cncn1)c1ccc(F)cc1F (centres unmarked) [Example 90] | 0.00391 (≈ 0.00753 µM) | 0.00391 (≈ 0.00753 µM) | 0.0625 (≈ 0.12 µM) | 0.0313 (≈ 0.0602 µM) | 0.00391 (≈ 0.00753 µM) | 0.003 (≈ 0.00577 µM) | 0.003 (≈ 0.00577 µM) |  | 0.0625 (≈ 0.12 µM) | 0.0156 (≈ 0.0301 µM) | 0.00391 (≈ 0.00753 µM) | 0.003 (≈ 0.00577 µM) | 0.00781 (≈ 0.015 µM) | 0.003 (≈ 0.00577 µM) | 0.008 to 0.03 (≈ 0.0154 to 0.0577 µM) | 0.00391 (≈ 0.00753 µM) | 0.00391 (≈ 0.00753 µM) | 0.0078 to 0.0313 (≈ 0.015 to 0.0602 µM) | 0.00391 (≈ 0.00753 µM) | 0.0039 (≈ 0.00751 µM) | MIC (C. glabrata NCPF8018; [7]): 0.0625 µg/mL (≈ 0.12 µM); MIC (C. krusei NCPF3876; [8]): 0.0313 µg/mL (≈ 0.0602 µM); MIC (C. parapsilosis NCPF3209; [9]): 0.00391 µg/mL (≈ 0.00753 µM); MIC (C. tropicalis NCPF8760; [10]): 0.0625 µg/mL (≈ 0.12 µM); MIC (C. albicans 8112): 0.00391 µg/mL (≈ 0.00753 µM)
OC(CN1CCC(N2CCC(Nc3ccc(OCCN4CCOCC4)cc3)CC2)CC1)(Cn1cncn1)c1ccc(F)cc1F (centres unmarked) [Example 92] | 2 (≈ 3.2 µM) |  | > 32 | > 32 | 2 to 8 (≈ 3.2 to 12.8 µM) | 8 to 32 (≈ 12.8 to 51.1 µM) | 32 (≈ 51.1 µM) | 32 (≈ 51.1 µM) | > 32 | 32 (≈ 51.1 µM) | 4 (≈ 6.39 µM) | 16 (≈ 25.6 µM) | 8 (≈ 12.8 µM) | 32 (≈ 51.1 µM) |  |  |  |  |  |  | 
